Measured values as given in paper PMC10165273, “Itch receptor MRGPRX4 interacts with the receptor activity–modifying proteins” (The Journal of Biological Chemistry, 2023).
Several values for one entry are separate records, joined by “and”; a condition that tells them apart may be missing. Identical values can stand only once. Like-named read-outs stand apart in the source and are kept apart here.

Key:
MRGPRX4 + RAMP2 = target: T1, MRGPRX4 + RAMP2 (Homo sapiens, UniProt Q96LA9); assay: IP1 accumulation, MRGPRX4 coexpressed with RAMP2; format: cell-based; details: log [nateglinide] (M) -7.49485; MRGPRX4+RAMP2 1pg 1:1; Supplementary Figure 5e, 5g
T1 construct: expressed in transfected cells; host or cells: HEK293T
T1 sequence (Q96LA9 whole entry): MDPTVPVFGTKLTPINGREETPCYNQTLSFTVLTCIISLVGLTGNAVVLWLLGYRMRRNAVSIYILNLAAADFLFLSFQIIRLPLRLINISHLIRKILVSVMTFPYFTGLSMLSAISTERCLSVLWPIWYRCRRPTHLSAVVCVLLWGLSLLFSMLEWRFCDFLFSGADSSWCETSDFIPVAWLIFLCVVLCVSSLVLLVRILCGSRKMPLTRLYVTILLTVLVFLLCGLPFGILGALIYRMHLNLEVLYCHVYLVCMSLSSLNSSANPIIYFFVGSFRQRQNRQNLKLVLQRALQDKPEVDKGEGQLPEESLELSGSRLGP
Experimental: (§1) HEK293T cells were transfected with 1 pg/cell of MRGPRX4 DNA, and the amount of DNA was kept constant at 2 pg/cell with pcDNA3.1(+) empty vector, unless otherwise specified. Twenty four hours after transfection, IP1 assay was performed as previously described ([51]). When applicable, cells were treated with 1 μM YM254890 (YM) or different concentrations of U73122 for 1 h prior to addition of agonist or buffer. After incubation for 2 h, HTRF reagents and IP1 calibration standards were added and incubated for 2 h in the dark at room temperature. Time-resolved fluorescence signals were read on the BioTek Synergy NEO-TRF Hybrid multi-mode reader (BioTek Instruments). All data were carried out in three independent experiments with three technical replicate each.
(§2) For RAMP DNA titration assay, HEK293T cells were cotransfected with a constant amount of 1 pg/cell of FLAG-MRGPRX4-GFP10-1D4 to which a serial dilution of 1, 0.75, 0.5, 0.25, or 0 pg/cell of each HA-RAMP-OLLAS was added. For a homogenous transfection of MRGPRX4, a master mix of MRGPRX4 DNA was made prior to addition of the RAMP DNA. […]
(§3) Data reduction, standard calibration, and transformation of HTRF data were performed as previously described ([51]). Normalized IP1 values were calculated relative to the unstimulated mock-transfected cells (set to 0%) and fully stimulated MRGPRX4 (alone if applicable) (set to 100%).

MRGPRX4 + RAMP3 = target: T2, MRGPRX4 + RAMP3 (Homo sapiens, UniProt Q96LA9); assay: IP1 accumulation, MRGPRX4 coexpressed with RAMP3; format: cell-based; design: key to IP1 Basal / response to agonist, X4:ramp3.I:0.25 / response to agonist, X4:ramp3.I:0.5 / response to agonist, X4:ramp3.I:1: % IP1; unstimulated mock = 0%, fully stimulated MRGPRX4 = 100%; details: for activation at 100 µM / activation at 20 µM / activation at 4 µM / activation at 0.8 µM / activation at […] / activation at 0.032 µM: 2 h; for EC50: Figure 4a top, individual replicates, read-out: potency (converted)
T2 construct: expressed in transfected cells; host or cells: HEK293T
T2 sequence (Q96LA9 whole entry): as above
Experimental: as §1, §2, §3

CC(C)[C@H]1CC[C@H](C(=O)N[C@H](Cc2ccccc2)C(=O)O)CC1 [Nateglinide] was tested, and the “IP1 accumulation (normalized)” value (MRGPRX4 + RAMP2) was 3.035 and 3.588 and 4.695, the activation at 100 µM (MRGPRX4 + RAMP3; log [nateglinide] (M) -4, MRGPRX4+RAMP3 0.75pg 1:0.75, Supplementary Figure 5f, read-out: IP1 accumulation (normalized)) was 80.5% and the activation at 20 µM (MRGPRX4 + RAMP3; log [nateglinide] (M) -4.69897, MRGPRX4+RAMP3 0.75pg 1:0.75, Supplementary Figure 5f, read-out: IP1 accumulation (normalized)) was 75.4%. It also gave an activation at 4 µM (MRGPRX4 + RAMP3; log [nateglinide] (M) -5.39794, MRGPRX4+RAMP3 0.5pg 1:0.5, Supplementary Figure 5f, read-out: IP1 accumulation (normalized)) of 44.2%, an activation at 4 µM (MRGPRX4 + RAMP3; log [nateglinide] (M) -5.39794, MRGPRX4+RAMP3 0.75pg 1:0.75, Supplementary Figure 5f, read-out: IP1 accumulation (normalized)) of 36.8% and an activation at 0.8 µM (MRGPRX4 + RAMP3; log [nateglinide] (M) -6.09691, MRGPRX4+RAMP3 0.5pg 1:0.5, Supplementary Figure 5f, read-out: IP1 accumulation (normalized)) of 21.5%. The activation at 0.8 µM (MRGPRX4 + RAMP3; log [nateglinide] (M) -6.09691, MRGPRX4+RAMP3 0.75pg 1:0.75, Supplementary Figure 5f, read-out: IP1 accumulation (normalized)) was 14.8%, the activation at 0.8 µM (MRGPRX4 + RAMP3; log [nateglinide] (M) -6.09691, MRGPRX4+RAMP3 1pg 1:1, Supplementary Figure 5f, 5g, read-out: IP1 accumulation (normalized)) was 20.8% and the activation at […] (MRGPRX4 + RAMP3; log [nateglinide] (M) -6.79588, MRGPRX4+RAMP3 0.5pg 1:0.5, Supplementary Figure 5f, read-out: IP1 accumulation (normalized)) was 13.1%. It also gave an activation at […] (MRGPRX4 + RAMP3; log [nateglinide] (M) -6.79588, MRGPRX4+RAMP3 0.75pg 1:0.75, Supplementary Figure 5f, read-out: IP1 accumulation (normalized)) of 12%, an activation at 0.032 µM (MRGPRX4 + RAMP3; log [nateglinide] (M) -7.49485, MRGPRX4+RAMP3 0.5pg 1:0.5, Supplementary Figure 5f, read-out: IP1 accumulation (normalized)) of 12.9% and an activation at 0.032 µM (MRGPRX4 + RAMP3; log [nateglinide] (M) -7.49485, MRGPRX4+RAMP3 0.75pg 1:0.75, Supplementary Figure 5f, read-out: IP1 accumulation (normalized)) of 9.2%. For the same molecule, the activation at 0.032 µM (MRGPRX4 + RAMP3; log [nateglinide] (M) -7.49485, MRGPRX4+RAMP3 1pg 1:1, Supplementary Figure 5f, 5g, read-out: IP1 accumulation (normalized)) was 13.1%, the activation at 100 µM (MRGPRX4 + RAMP3; ratio MRGPRX4:RAMP3 1:0.25, log [Nateglinide] (M) -4, Fig S3c, read-out: IP1 accumulation) was 75.8% and the activation at 20 µM (MRGPRX4 + RAMP3; ratio MRGPRX4:RAMP3 1:0.25, log [Nateglinide] (M) -4.69897, Fig S3c, read-out: IP1 accumulation) was 68.5%. It also gave an activation at 4 µM (MRGPRX4 + RAMP3; ratio MRGPRX4:RAMP3 1:0.25, log [Nateglinide] (M) -5.39794, Fig S3c, read-out: IP1 accumulation) of 41%, an activation at 0.8 µM (MRGPRX4 + RAMP3; ratio MRGPRX4:RAMP3 1:0.25, log [Nateglinide] (M) -6.09691, Fig S3c, read-out: IP1 accumulation) of 25.1% and an activation at […] (MRGPRX4 + RAMP3; ratio MRGPRX4:RAMP3 1:0.25, log [Nateglinide] (M) -6.79588, Fig S3c, read-out: IP1 accumulation) of 23.1%. For the same molecule, the activation at 0.032 µM (MRGPRX4 + RAMP3; ratio MRGPRX4:RAMP3 1:0.25, log [Nateglinide] (M) -7.49485, Fig S3c, read-out: IP1 accumulation) was 21%, the activation at 100 µM (MRGPRX4 + RAMP3; ratio MRGPRX4:RAMP3 1:0.5, log [Nateglinide] (M) -4, Fig S3c, read-out: IP1 accumulation) was 91% and the activation at 20 µM (MRGPRX4 + RAMP3; ratio MRGPRX4:RAMP3 1:0.5, log [Nateglinide] (M) -4.69897, Fig S3c, read-out: IP1 accumulation) was 74.7%. For the same molecule, the activation at 4 µM (MRGPRX4 + RAMP3; ratio MRGPRX4:RAMP3 1:0.5, log [Nateglinide] (M) -5.39794, Fig S3c, read-out: IP1 accumulation) was 39.2%, the activation at 0.8 µM (MRGPRX4 + RAMP3; ratio MRGPRX4:RAMP3 1:0.5, log [Nateglinide] (M) -6.09691, Fig S3c, read-out: IP1 accumulation) was 21.5% and the activation at […] (MRGPRX4 + RAMP3; ratio MRGPRX4:RAMP3 1:0.5, log [Nateglinide] (M) -6.79588, Fig S3c, read-out: IP1 accumulation) was 16.2%. The activation at 0.032 µM (MRGPRX4 + RAMP3; ratio MRGPRX4:RAMP3 1:0.5, log [Nateglinide] (M) -7.49485, Fig S3c, read-out: IP1 accumulation) was 16.8%, the activation at 100 µM (MRGPRX4 + RAMP3; ratio MRGPRX4:RAMP3 1:1, log [Nateglinide] (M) -4, Fig S3c, read-out: IP1 accumulation) was 86.2% and the activation at 20 µM (MRGPRX4 + RAMP3; ratio MRGPRX4:RAMP3 1:1, log [Nateglinide] (M) -4.69897, Fig S3c, read-out: IP1 accumulation) was 67.6%. The activation at 4 µM (MRGPRX4 + RAMP3; ratio MRGPRX4:RAMP3 1:1, log [Nateglinide] (M) -5.39794, Fig S3c, read-out: IP1 accumulation) was 32.5%, the activation at 0.8 µM (MRGPRX4 + RAMP3; ratio MRGPRX4:RAMP3 1:1, log [Nateglinide] (M) -6.09691, Fig S3c, read-out: IP1 accumulation) was 18.7% and the activation at […] (MRGPRX4 + RAMP3; ratio MRGPRX4:RAMP3 1:1, log [Nateglinide] (M) -6.79588, Fig S3c, read-out: IP1 accumulation) was 15.5%. The activation at 0.032 µM (MRGPRX4 + RAMP3; ratio MRGPRX4:RAMP3 1:1, log [Nateglinide] (M) -7.49485, Fig S3c, read-out: IP1 accumulation) was 13.9%, the activation at 100 µM (MRGPRX4 + RAMP3; ratio MRGPRX4:RAMP3 1:2, log [Nateglinide] (M) -4, Fig S3c, read-out: IP1 accumulation) was 83.7% and the activation at 4 µM (MRGPRX4 + RAMP3; ratio MRGPRX4:RAMP3 1:2, log [Nateglinide] (M) -5.39794, Fig S3c, read-out: IP1 accumulation) was 28.1%. The activation at 0.8 µM (MRGPRX4 + RAMP3; ratio MRGPRX4:RAMP3 1:2, log [Nateglinide] (M) -6.09691, Fig S3c, read-out: IP1 accumulation) was 16.1%, the activation at […] (MRGPRX4 + RAMP3; ratio MRGPRX4:RAMP3 1:2, log [Nateglinide] (M) -6.79588, Fig S3c, read-out: IP1 accumulation) was 14.2% and the activation at 0.032 µM (MRGPRX4 + RAMP3; ratio MRGPRX4:RAMP3 1:2, log [Nateglinide] (M) -7.49485, Fig S3c, read-out: IP1 accumulation) was 12.5%. For the same molecule, the Emax (MRGPRX4 + RAMP3; Figure 4a bottom, DNA ratio MRGPRX4:RAMP3 1:0.5, MRGPRX4 alone = 100, read-out: efficacy) was 86.9%, the EC50 (MRGPRX4 + RAMP3; DNA ratio MRGPRX4:RAMP3 1:0.25) was 11.8 µM and 9.51 µM and 7.13 µM and the EC50 (MRGPRX4 + RAMP3; DNA ratio MRGPRX4:RAMP3 1:0.5) was 11.4 µM and 8.91 µM and 11.9 µM. The EC50 (MRGPRX4 + RAMP3; DNA ratio MRGPRX4:RAMP3 1:0.75) was 11.6 µM and 10 µM and 5.04 µM, the EC50 (MRGPRX4 + RAMP3; DNA ratio MRGPRX4:RAMP3 1:1) was 11 µM and 13.4 µM and 7.31 µM and the “response to agonist, X4:ramp3.I:0.25” value (MRGPRX4 + RAMP3; Figure 4c-f, agonist 100µM, X4:ramp3 1:0.25, MRGPRX4 = 100) was 78.1524 and 81.0936.
